Here are results for seven compounds from PubChem BioAssay AID1918952 (Molecular Pharmacology Branch, DTP, NCI, 2023).

For this experiment, the system named is LG0703-F948-PDC complex spheroid viability. The experiment in a line: Anticancer human tumor LG0703-F948-PDC patient-derived lung adenocarcinoma cell line growth inhibition. The following applies: for viability, T/C: stronger effect = lower value. The method in brief: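 Multicellular complex spheroids of tumor cells with human endothelial cells (HUVEC) and mesenchymal stem cells; the LSD1 inhibitor iadademstat was combined with standard-of-care or investigational agents. Top concentration at or near clinical Cmax, half-log dilutions; final DMSO ≤0.25%.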

[1] abbreviates: curve of first compound, second compound 0.1 µM.
The mark [2] stands for this setting: curve of first compound, second compound 0.316 µM.
The mark [3] stands for this setting: curve of first compound, second compound 1 µM.
The mark [4] stands for this setting: curve of first compound, second compound 3.16 µM.
Setting [5] is: curve of first compound, second compound 10 µM.
[6] abbreviates: second compound 0.1 µM, first compound 0.00316 µM.
Where [7] appears, read: second compound 0.1 µM, first compound 0.01 µM.
Setting [8] is: second compound 0.1 µM, first compound 0.0316 µM.
Setting [9] is: second compound 0.1 µM, first compound 0.1 µM.
[10] abbreviates: second compound 0.1 µM, first compound 0.316 µM.
[11] abbreviates: second compound 0.1 µM, first compound 1 µM.
The mark [12] stands for this setting: second compound 0.316 µM, first compound 0.00316 µM.
[13] abbreviates: second compound 0.316 µM, first compound 0.01 µM.
Setting [14] is: second compound 0.316 µM, first compound 0.0316 µM.
The mark [15] stands for this setting: second compound 0.316 µM, first compound 0.1 µM.
Setting [16] is: second compound 0.316 µM, first compound 0.316 µM.
Where [17] appears, read: second compound 0.316 µM, first compound 1 µM.
Setting [18] is: second compound 1 µM, first compound 0.00316 µM.
Setting [19] is: second compound 1 µM, first compound 0.01 µM.
Where [20] appears, read: second compound 1 µM, first compound 0.0316 µM.
The mark [21] stands for this setting: second compound 1 µM, first compound 0.1 µM.
Where [22] appears, read: second compound 1 µM, first compound 0.316 µM.
Setting [23] is: second compound 1 µM, first compound 1 µM.
Setting [24] is: second compound 3.16 µM, first compound 0.00316 µM.
Setting [25] is: second compound 3.16 µM, first compound 0.01 µM.
Where [26] appears, read: second compound 3.16 µM, first compound 0.0316 µM.
[27] abbreviates: second compound 3.16 µM, first compound 0.1 µM.
Where [28] appears, read: second compound 3.16 µM, first compound 0.316 µM.
The mark [29] stands for this setting: second compound 3.16 µM, first compound 1 µM.
Where [30] appears, read: second compound 10 µM, first compound 0.00316 µM.
The mark [31] stands for this setting: second compound 10 µM, first compound 0.01 µM.
Where [32] appears, read: second compound 10 µM, first compound 0.0316 µM.
The mark [33] stands for this setting: second compound 10 µM, first compound 0.1 µM.
The mark [34] stands for this setting: second compound 10 µM, first compound 0.316 µM.
Where [35] appears, read: second compound 10 µM, first compound 1 µM.

“And” between values parts separate entries of the source, which are not always exact repeats. Equal entries are not always repeated.
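Further: spheroids exposed to agents for seven days before readout.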
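Wherever viability, T/C is given: 100% = DMSO vehicle control wells as normalization base.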

As to `O=C(C=Cn1cnc(-c2cc(C(F)(F)F)cc(C(F)(F)F)c2)n1)NNc1cnccn1` + NC1CC1c1ccc(-c2cccc(O)c2)cc1, the IC50 (usually the concentration that gives 50% inhibition) under setting [1] came to 12.1 nM; the IC50 under setting [2] came out at 18 nM; the IC50 under setting [3] is 25.9 nM; the IC50 under setting [4] came out at 69.1 nM; the IC50 under setting [5] worked out at 114 nM. The viability, T/C (commonly the result in the treated group divided by that in the control group, in per cent) was 62.2% under setting [6]; 54.6% under setting [7]; 38.8% under setting [8]; 34.7% under setting [9]; 31.8% under setting [10]; 25.4% under setting [11]. Moreover, the viability, T/C under setting [12] is 67.6%; the viability, T/C under setting [13] was 58.9%; the viability, T/C under setting [14] is 40%; the viability, T/C under setting [15] is 36.2%; the viability, T/C under setting [16] is 26%; the viability, T/C under setting [17] is 24.6%. In addition, the viability, T/C is 70.4% under setting [18]; 58.8% under setting [19]; 47% under setting [20]; 39.5% under setting [21]; 29.5% under setting [22]; 22.6% under setting [23]. In addition, the viability, T/C is 70.4% under setting [24]; 67.7% under setting [25]; 64% under setting [26]; 43.6% under setting [27]; 22.4% under setting [28]; 22% under setting [29]. Further, the viability, T/C is 75.8% under setting [30]; 73.1% under setting [31]; 64.2% under setting [32]; 54.9% under setting [33]; 31.7% under setting [34]; 23.7% under setting [35].

Consider `CC[C@@]1(O)C(=O)OCc2c1cc1n(c2=O)Cc2cc3c(CN(C)C)c(O)ccc3nc2-1`, for which the viability, T/C reads like this: (compound 0.000316 µM) 111% and 107%; (compound 0.001 µM) 97% and 103%; (compound 0.00316 µM) 96.5% and 94.7%; (compound 0.01 µM) 92.4% and 88.5%; (compound 0.0316 µM) 65.7% and 67.3%; (compound 0.1 µM) 44.6% and 40.1%. The IC50 (curve of compound) was 75.4 nM and 66.7 nM.

Take `Cn1ncnc1C1c2n[nH]c(=O)c3cc(F)cc(c23)NC1c1ccc(F)cc1` (configuration not stated) + NC1CCC(NC2CC2c2ccccc2)CC1: the IC50 is, setting by setting: under setting [1], over 100 nM; under setting [2], over 100 nM; under setting [3], over 100 nM; under setting [4], over 100 nM; under setting [5], over 100 nM. In addition, the viability, T/C runs as follows: (second compound 0.1 µM, first compound 0.000316 µM) 102%; (second compound 0.1 µM, first compound 0.001 µM) 96.2%; under setting [6], 93.1%; under setting [7], 104%; under setting [8], 88.4%; under setting [9], 97.8%. The viability, T/C reads like this: (second compound 0.316 µM, first compound 0.000316 µM) 111%; (second compound 0.316 µM, first compound 0.001 µM) 108%; under setting [12], 95.8%; under setting [13], 113%; under setting [14], 93.1%; under setting [15], 96.9%. The viability, T/C is, setting by setting: (second compound 1 µM, first compound 0.000316 µM) 113%; (second compound 1 µM, first compound 0.001 µM) 128%; under setting [18], 116%; under setting [19], 111%; under setting [20], 115%; under setting [21], 97.7%. In addition, the viability, T/C (second compound 3.16 µM, first compound 0.000316 µM) was 122%; the viability, T/C (second compound 3.16 µM, first compound 0.001 µM) was 133%; the viability, T/C under setting [24] is 115%; the viability, T/C under setting [25] is 123%; the viability, T/C under setting [26] is 117%; the viability, T/C under setting [27] was 122%. The viability, T/C runs as follows: (second compound 10 µM, first compound 0.000316 µM) 108%; (second compound 10 µM, first compound 0.001 µM) 123%; under setting [30], 115%; under setting [31], 117%; under setting [32], 111%; under setting [33], 121%.

For the compound `NC1CC1c1ccc(-c2cccc(O)c2)cc1` (configuration not stated), the viability, T/C runs as follows: (compound 0.1 µM) 94.9% and 98.4%; (compound 3.16 µM) 99.9% [middle of 24 runs]. Further, the IC50 (compound alone, run of 02/21/2022) was over 10000 nM.

`COc1ccc([C@@H](O)c2cc(-c3ncnc4cc(N5CCOCC5)ccc34)c(F)cc2Cl)nn1` + NC1CC1c1ccc(-c2cccc(O)c2)cc1: the IC50 stood at 1520 nM under setting [1]; 1590 nM under setting [2]; 1490 nM under setting [3]; 1210 nM under setting [4]; 1140 nM under setting [5]. Moreover, the viability, T/C was 90.3% under setting [8]; 110% under setting [9]; 96.5% under setting [10]; 61% under setting [11]; 27.2% (second compound 0.1 µM, first compound 3.16 µM); 3.8% (second compound 0.1 µM, first compound 10 µM). Also, the viability, T/C reads like this: under setting [14], 112%; under setting [15], 98.2%; under setting [16], 98.7%; under setting [17], 68.2%; (second compound 0.316 µM, first compound 3.16 µM) 23%; (second compound 0.316 µM, first compound 10 µM) 4.64%. Also, the viability, T/C is 98.8% under setting [20]; 96.7% under setting [21]; 98.7% under setting [22]; 63.8% under setting [23]; 21.7% (second compound 1 µM, first compound 3.16 µM); 3.41% (second compound 1 µM, first compound 10 µM). For the same compound, the viability, T/C is 107% under setting [26]; 101% under setting [27]; 86.1% under setting [28]; 59.2% under setting [29]; 16.3% (second compound 3.16 µM, first compound 3.16 µM); 2.59% (second compound 3.16 µM, first compound 10 µM). The viability, T/C is, setting by setting: under setting [32], 108%; under setting [33], 99.4%; under setting [34], 90.4%; under setting [35], 57.9%; (second compound 10 µM, first compound 3.16 µM) 7.24%; (second compound 10 µM, first compound 10 µM) 2.33%.

With `O=C(C=Cn1cnc(-c2cc(C(F)(F)F)cc(C(F)(F)F)c2)n1)NNc1cnccn1` + NC1CCC(NC2CC2c2ccccc2)CC1, the IC50 was under 3.16 nM under setting [1]; under 3.16 nM under setting [2]; 9.15 nM under setting [3]; 29 nM under setting [4]; under 3.16 nM under setting [5]. Further, the viability, T/C runs as follows: under setting [6], 45.3%; under setting [7], 50.8%; under setting [8], 37.8%; under setting [9], 33%; under setting [10], 30.6%; under setting [11], 25.1%. The viability, T/C reads like this: under setting [12], 47.3%; under setting [13], 47.5%; under setting [14], 43.8%; under setting [15], 31.8%; under setting [16], 33%; under setting [17], 33.9%. Moreover, the viability, T/C was 56.6% under setting [18]; 50.1% under setting [19]; 44.5% under setting [20]; 37.6% under setting [21]; 29.7% under setting [22]; 33.8% under setting [23]. Besides, the viability, T/C was 58.4% under setting [24]; 57.2% under setting [25]; 48.3% under setting [26]; 41.1% under setting [27]; 32.8% under setting [28]; 30.2% under setting [29]. The viability, T/C was 41.7% under setting [30]; 45.7% under setting [31]; 45.7% under setting [32]; 44.9% under setting [33]; 37.4% under setting [34]; 23.5% under setting [35].

Turning to `COc1ccc([C@@H](O)c2cc(-c3ncnc4cc(N5CCOCC5)ccc34)c(F)cc2Cl)nn1`, the viability, T/C runs as follows: (compound 0.0316 µM) 96.8% and 94.9%; (compound 0.1 µM) 95.5% and 89%; (compound 0.316 µM) 83.9% and 78.1%; (compound 1 µM) 64.1% and 62.8%; (compound 3.16 µM) 20.1% and 24%; (compound 10 µM) 3.89% and 4.14%. Moreover, for the setting “curve of compound”, the IC50 was 1400 nM and 1380 nM.
